In publication PMC12051030, “Identification of inhibitors of the Salmonella FraB deglycase, a drug target” (FEBS Open Bio, 2025):
Read-outs that look alike come from different tables or passages of the source.

Biological target: His6‐FraB (Salmonella FraB deglycase) (Salmonella enterica subsp. enterica serovar Typhimurium, UniProt Q8ZLD0)
Assay: FraB-G6PD coupled assay, Michaelis–Menten analysis for K I and mode of inhibition
Format: biochemical
Procedure: To determine the K I of each inhibitor, 29 μL of master mix was added to two rows of a 384‐well Greiner plate, using a single‐channel pipette, and incubated at 20 °C for 20 min. A 12‐channel pipette was then used to transfer and mix 1 μL of varying [6‐P‐F‐Asp] to all 48 wells. The final reaction (30 μL) consisted of 25 mM HEPES pH 8.0 at 20 °C, 5 mM MgCl2, 0.1 mM EGTA, 0.5 mM NAD^+, 1 mU G6PD, 100 nM His6‐FraB, varying (6‐P‐F‐Asp) (between 8 and 12 concentrations), and varying [inhibitor] (between three and five concentrations) in 10% (v/v) DMSO. NADH fluorescence was monitored every 10 s for 10 min total on a SPARK® multi‐mode multiplate reader (Tecan), as described above, and plotted against time. Slopes of the linear range of each curve were converted to initial velocities, as described above, that were then plotted against [6‐P‐F‐Asp]. A hyperbolic curve was then fitted to the data to obtain the k cat and K m values according to the formula: v o = (V max × [S])/(K m + [S]).
To determine the correlation between the observed and expected initial velocities (Fig. S5A), these values were exported from Kaleidagraph, plotted against one another, and a curve was fit using the formula: y = mx + b. The differences between observed and expected initial velocities (residuals) were then depicted as box‐and‐whisker plots (Fig. S5B). Lineweaver‐Burk plots were generated by graphing 1/v o versus 1/[S] and curves were fit to the data with Kaleidagraph using the formula: 1/v o = (Km/V max).(1/[S]) + (1/V max). The k cat and K m parameters were then converted into α′ values by dividing the k cat of the control (no inhibitor) by either itself (α′= 1) or the k cat of test samples with variable [inhibitor]. Those α′ values were plotted against [inhibitor] and K I values were determined from the equation α = 1 + [I]/K I.
The initial velocities used to generate the Michaelis–Menten plots were also employed to obtain the IC50 vs [S]/K m plots. For a given [S], initial velocities were converted into relative activities and plotted versus [inhibitor]. […] The IC50 values determined from the IC50 vs [S]/K m plots were then used to plot 1/IC50 versus v o/V max. A curve was fit to the data using the formula: y = mx + b. The Y‐intercept of the 1/IC50 versus v o/V max plot is equal to 1/K IC, and the slope, for mixed inhibitors, is equal to 1/K IU – 1/K IC. […] Data analyses were performed as described above (see Tables S1–S7 for curve‐fit errors and goodness‐of‐fit values).

Chain of His6‐FraB (Salmonella FraB deglycase) (Q8ZLD0 entry or part of it): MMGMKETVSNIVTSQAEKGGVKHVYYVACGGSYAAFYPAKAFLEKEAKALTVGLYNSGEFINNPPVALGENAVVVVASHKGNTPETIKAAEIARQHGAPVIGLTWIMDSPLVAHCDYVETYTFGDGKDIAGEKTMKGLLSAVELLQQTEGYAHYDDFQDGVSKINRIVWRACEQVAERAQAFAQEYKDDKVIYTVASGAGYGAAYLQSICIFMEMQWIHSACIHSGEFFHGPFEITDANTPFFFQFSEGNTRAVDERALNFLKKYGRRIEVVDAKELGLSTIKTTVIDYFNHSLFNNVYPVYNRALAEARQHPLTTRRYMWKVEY

Structure (SMILES): c1ccc(-c2nnc3sc(C4COc5ccccc5O4)nn23)nc1 (stereo not drawn) [3469:F02, 6‐(2,3‐dihydro‐1,4‐benzodioxin‐3‐yl)‐3‐pyridin‐2‐yl‐[1,2,4]triazolo[3,4‐b][1,3,4]thiadiazole]
- change of IC50 values with increasing [S]/K m ('this trend' = IC50 does not vary with [S]/K m, change evident only from 0.2 to 1.6× [S]/K m): slight increase
- slope in plots of 1/IC50 vs. v o/V max (Fig. S12): weakly negative
- IC50 (Trial 1, 6-P-F-Asp 7.38 µM, S/Km 0.175714, unit from Fig. S11 axis, read-out: IC50 (IC50 versus [S]/Km plots)): 18.9 µM
- IC50 (Trial 1, 6-P-F-Asp 15.7 µM, S/Km 0.37381, unit from Fig. S11 axis, read-out: IC50 (IC50 versus [S]/Km plots)): 27.6 µM
- IC50 (Trial 1, 6-P-F-Asp 31.3 µM, S/Km 0.745238, unit from Fig. S11 axis, read-out: IC50 (IC50 versus [S]/Km plots)): 33.5 µM
- IC50 (Trial 1, 6-P-F-Asp 62.5 µM, S/Km 1.488095, unit from Fig. S11 axis, read-out: IC50 (IC50 versus [S]/Km plots)): 27.9 µM
- IC50 (Trial 1, 6-P-F-Asp 125 µM, S/Km 2.97619, unit from Fig. S11 axis, read-out: IC50 (IC50 versus [S]/Km plots)): 34 µM
- IC50 (Trial 1, 6-P-F-Asp 250 µM, S/Km 5.952381, unit from Fig. S11 axis, read-out: IC50 (IC50 versus [S]/Km plots)): 31.8 µM
- IC50 (Trial 1, 6-P-F-Asp 500 µM, S/Km 11.90476, unit from Fig. S11 axis, read-out: IC50 (IC50 versus [S]/Km plots)): 32.7 µM
- IC50 (Trial 1, 6-P-F-Asp 750 µM, S/Km 17.85714, unit from Fig. S11 axis, read-out: IC50 (IC50 versus [S]/Km plots)): 33.7 µM
- IC50 (Trial 1, 6-P-F-Asp 1000 µM, S/Km 23.80952, unit from Fig. S11 axis, read-out: IC50 (IC50 versus [S]/Km plots)): 33.9 µM
- IC50 (Trial 1, 6-P-F-Asp 2000 µM, S/Km 47.61905, unit from Fig. S11 axis, read-out: IC50 (IC50 versus [S]/Km plots)): 36.1 µM
- IC50 (Trial 1, 6-P-F-Asp 3000 µM, S/Km 71.42857, unit from Fig. S11 axis, read-out: IC50 (IC50 versus [S]/Km plots)): 52.6 µM
- IC50 (Trial 2, 6-P-F-Asp 7.38 µM, S/Km 0.175714, unit from Fig. S11 axis, read-out: IC50 (IC50 versus [S]/Km plots)): 41.2 µM
- IC50 (Trial 2, 6-P-F-Asp 15.7 µM, S/Km 0.37381, unit from Fig. S11 axis, read-out: IC50 (IC50 versus [S]/Km plots)): 41.3 µM
- IC50 (Trial 2, 6-P-F-Asp 31.3 µM, S/Km 0.745238, unit from Fig. S11 axis, read-out: IC50 (IC50 versus [S]/Km plots)): 51.7 µM
- IC50 (Trial 2, 6-P-F-Asp 62.5 µM, S/Km 1.488095, unit from Fig. S11 axis, read-out: IC50 (IC50 versus [S]/Km plots)): 51.3 µM
- IC50 (Trial 2, 6-P-F-Asp 125 µM, S/Km 2.97619, unit from Fig. S11 axis, read-out: IC50 (IC50 versus [S]/Km plots)): 49.2 µM
- IC50 (Trial 2, 6-P-F-Asp 250 µM, S/Km 5.952381, unit from Fig. S11 axis, read-out: IC50 (IC50 versus [S]/Km plots)): 47.8 µM
- IC50 (Trial 2, 6-P-F-Asp 500 µM, S/Km 11.90476, unit from Fig. S11 axis, read-out: IC50 (IC50 versus [S]/Km plots)): 46.1 µM
- IC50 (Trial 2, 6-P-F-Asp 750 µM, S/Km 17.85714, unit from Fig. S11 axis, read-out: IC50 (IC50 versus [S]/Km plots)): 45.4 µM
- IC50 (Trial 2, 6-P-F-Asp 1000 µM, S/Km 23.80952, unit from Fig. S11 axis, read-out: IC50 (IC50 versus [S]/Km plots)): 48.9 µM
- IC50 (Trial 2, 6-P-F-Asp 2000 µM, S/Km 47.61905, unit from Fig. S11 axis, read-out: IC50 (IC50 versus [S]/Km plots)): 59.2 µM
- IC50 (Trial 2, 6-P-F-Asp 3000 µM, S/Km 71.42857, unit from Fig. S11 axis, read-out: IC50 (IC50 versus [S]/Km plots)): 67.2 µM
- K IU/K IC ratio (average (±SE), from 1/IC50 versus v o/V max plots): 1.35 ± 0.25
- Ki (from Michaelis–Menten analysis of FraB at different inhibitor concentrations, average and standard error from two measurements, read-out: K I): 28.5 ± 3.5 µM
- mode of inhibition (kinetic analyses (Lineweaver‐Burk, α′ vs [I], IC50 vs [S]/K m, 1/IC50 vs v o/V max)): mixed‐type competitive
- IC50 (trial shown in Fig. S11 panels M-X, read-out: IC50, mean and standard deviation of all IC50 values in IC50 vs [S]/Km plot): 50 ± 8 µM
- Ki (trial shown in Fig. S11 panels M-X, read-out: KI from α′ vs [I] plot): 25 µM
- Ki (trial shown in Fig. S11 panels Y-AJ, read-out: KI from α′ vs [I] plot): 32 µM
